Emax and EC50 data for 23 compounds are collected here from US9868746B2, “Substituted 5-aminothieno[2,3-C]pyridazine-6-carboxamide analogs as positive allosteric modulators of the muscarinic acetylcholine receptor M4” (Vanderbilt University, priority 2012, dated 2018).

The target in the assay is T1, mAChR M4 (Homo sapiens, UniProt P08173).
T1 construct: expressed in transfected cells; host or cells: CHO-K1 cells stably transfected with M4 cDNA and chimeric G-protein Gqi5
T1 sequence (P08173 1-479): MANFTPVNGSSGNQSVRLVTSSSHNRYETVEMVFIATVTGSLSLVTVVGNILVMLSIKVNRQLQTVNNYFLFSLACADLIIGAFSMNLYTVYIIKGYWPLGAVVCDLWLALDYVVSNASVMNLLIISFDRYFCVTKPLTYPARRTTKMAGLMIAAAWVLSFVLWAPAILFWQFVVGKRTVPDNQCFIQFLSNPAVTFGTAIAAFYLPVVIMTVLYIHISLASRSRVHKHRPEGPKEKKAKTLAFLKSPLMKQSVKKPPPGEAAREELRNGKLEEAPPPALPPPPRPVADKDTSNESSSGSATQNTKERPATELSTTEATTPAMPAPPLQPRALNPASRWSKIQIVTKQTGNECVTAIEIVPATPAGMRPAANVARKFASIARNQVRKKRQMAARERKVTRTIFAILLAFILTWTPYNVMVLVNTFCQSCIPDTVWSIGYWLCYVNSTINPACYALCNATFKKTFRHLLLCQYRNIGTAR
The experiment in a line: mAChR M4 cell-based functional assay (calcium mobilization, potentiation of EC20 acetylcholine response). The settings on record: for Emax at 30 µM: % ACh maximum at 30 μM; for EC50: mAChR M4 cell-based functional assay, >10,000 estimated for low potency compounds without plateau, read-out: EC50.

For `Cc1c(CN2CCOCC2)nnc2sc(C(=O)NCc3ccc(S(=O)(=O)C(F)(F)F)cc3)c(N)c12` [Example B324], the Emax at 30 µM amounted to 72% and the EC50 is 460 nM.
Consider `Cc1nnc2sc(C(=O)N3CC(F)(c4cccc(-c5cnn(C)c5)c4)C3)c(N)c2c1C` [Example B325], for which the Emax at 30 µM is 62% and the EC50 was 590 nM.
Take `Cc1nnc2sc(C(=O)N3CC(F)(c4ccc(-c5cncnc5)cc4)C3)c(N)c2c1C` [Example B326]: the Emax at 30 µM was found to be 50% and the EC50 was 390 nM.
Consider `Cc1nnc2sc(C(=O)NCc3ccc(N4CCOCC4)cc3)c(N)c2c1C` [Example B327], for which the Emax at 30 µM came out at 67% and the EC50 is 120 nM.
On to `Cc1nnc2sc(C(=O)NCc3ccc(CN(C)C)cc3)c(N)c2c1C` [Example B328], for which the Emax at 30 µM is 73% and the EC50 was 130 nM.
Taken in the same sequence, the figures for `Cc1nnc2sc(C(=O)NCc3ccc(S(C)(=O)=O)cn3)c(N)c2c1C` [Example B329] were 74% and 780 nM.
Regarding `Cc1nnc2sc(C(=O)NCc3ccc(S(C)(=O)=O)nc3)c(N)c2c1C` [Example B330], the Emax at 30 µM worked out at 68% and the EC50 was 150 nM.
The like results for `Cc1nnc2sc(C(=O)N3CC4CN(C(=O)c5ccc(F)cc5)CC4C3)c(N)c2c1C` (stereo not shown) [Example B331] were, in that order, 58% and 3600 nM.
Regarding `Cc1nnc2sc(C(=O)N3CC4CN(C(=O)C5CC5)CC4C3)c(N)c2c1C` (stereo not shown) [Example B332], the Emax at 30 µM was 58% and the EC50 was 1600 nM.
Regarding `Cc1nnc2sc(C(=O)N3CC4CN(C(=O)C(C)(C)C)CC4C3)c(N)c2c1C` (stereo not shown) [Example B333], the Emax at 30 µM stood at 53% and the EC50 was above 10000 nM.
The like results for `COc1ccc(OC(=O)N2CC(NC(=O)c3sc4nnc(C)c(C)c4c3N)C2)cc1` [Example B334] were, in that order, 69% and 13 nM.
Taken in the same sequence, the figures for `Cc1nnc2sc(C(=O)NCc3ccc(S(=O)(=O)CCO[Si](c4ccccc4)(c4ccccc4)C(C)(C)C)cc3)c(N)c2c1C` [Example B335] were 74% and 890 nM.
For the compound `Cc1nnc2sc(C(=O)N3CC4CN(C(=O)Oc5ccccc5)CC4C3)c(N)c2c1C` (stereo not shown) [Example B336], the Emax at 30 µM was found to be 49% and the 50% effective concentration (EC50) is 980 nM.
As to `Cc1nnc2sc(C(=O)NC3CN(C(=O)NCCCN4CCOCC4)C3)c(N)c2c1C` [Example B337], the maximal effect (Emax) at 30 µM came to 55% and the EC50 was 600 nM.
For the compound `Cc1nnc2sc(C(=O)NC3CN(C(=O)Nc4ccccc4F)C3)c(N)c2c1C` [Example B338], the Emax at 30 µM turned out to be 62% and the EC50 is 44 nM.
On to `Cc1nnc2sc(C(=O)NC3CCN(c4ccccc4F)C3)c(N)c2c1C` (stereo not shown) [Example B339], for which the maximal response (Emax) at 30 µM amounted to 74% and the EC50 was 76 nM.
With `Cc1nnc2sc(C(=O)NCCNC(=O)c3ccc(F)cc3)c(N)c2c1C` [Example B340], the Emax at 30 µM was 38% and the EC50 is 370 nM.
`Cc1nnc2sc(C(=O)NC3CN(C(=O)OCCN(C)C)C3)c(N)c2c1C` [Example B341]: the maximal response (Emax) at 30 µM turned out to be 74% and the EC50 was 120 nM.
On to `Cc1ccc(OC(=O)N2CC(NC(=O)c3sc4nnc(C)c(C)c4c3N)C2)cc1` [Example B342], for which the Emax at 30 µM amounted to 67% and the EC50 was 9 nM.
Taken in the same sequence, the figures for `Cc1nnc2sc(C(=O)NCCN(C)C(=O)C3CC3)c(N)c2c1C` [Example B343] were 33% and above 10000 nM.
For `Cc1nnc2sc(C(=O)NCCN(C)S(C)(=O)=O)c(N)c2c1C` [Example B344], the Emax at 30 µM worked out at 41% and the EC50 was above 10000 nM.
For the compound `Cc1nnc2sc(C(=O)NCCNC(=O)OCc3ccccc3)c(N)c2c1C` [Example B345], the maximal effect (Emax) at 30 µM amounted to 64% and the EC50 is 3600 nM.
The like results for `Cc1nnc2sc(C(=O)NC3CCN(c4ccc(F)cc4)C3)c(N)c2c1C` (stereo not shown) [Example B346] were, in that order, 79% and 170 nM.

What is called Emax is the greatest response seen or fitted, relative to the assay's reference. What is called EC50 is the concentration needed to bring the measured effect to its halfway point.
